From patent US20230399342A1 (Incyte Corporation, priority 2022, published 2023)

Experiments:
DGKζ = DGKζ (Homo sapiens (Human), UniProt Q13574); assay: In vitro DGKζ inhibition assay (ADP-Glo); assay type: biochemical; conditions: His-tagged human recombinant enzyme, 0.4 nM DGK, 30 μM ATP, 20 μM DLG, 90 minute incubation
Summary of the method: (§1)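 His-tagged human DGKα (0.1 nM, 50 μM ATP) or DGKζ (0.4 nM, 30 μM ATP), each with 20 μM DLG, in Tris pH 7.5 buffer with CHAPS, Mg2+, Ca2+.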

DGKα = DGKα (Homo sapiens (Human), UniProt P23743); assay: In vitro DGKα inhibition assay (ADP-Glo); assay type: biochemical; conditions: His-tagged human recombinant enzyme, 0.1 nM DGKα, 50 μM ATP, 20 μM DLG, 90 minute incubation
Summary of the method: as §1

DGKα, sequence (P23743 whole entry): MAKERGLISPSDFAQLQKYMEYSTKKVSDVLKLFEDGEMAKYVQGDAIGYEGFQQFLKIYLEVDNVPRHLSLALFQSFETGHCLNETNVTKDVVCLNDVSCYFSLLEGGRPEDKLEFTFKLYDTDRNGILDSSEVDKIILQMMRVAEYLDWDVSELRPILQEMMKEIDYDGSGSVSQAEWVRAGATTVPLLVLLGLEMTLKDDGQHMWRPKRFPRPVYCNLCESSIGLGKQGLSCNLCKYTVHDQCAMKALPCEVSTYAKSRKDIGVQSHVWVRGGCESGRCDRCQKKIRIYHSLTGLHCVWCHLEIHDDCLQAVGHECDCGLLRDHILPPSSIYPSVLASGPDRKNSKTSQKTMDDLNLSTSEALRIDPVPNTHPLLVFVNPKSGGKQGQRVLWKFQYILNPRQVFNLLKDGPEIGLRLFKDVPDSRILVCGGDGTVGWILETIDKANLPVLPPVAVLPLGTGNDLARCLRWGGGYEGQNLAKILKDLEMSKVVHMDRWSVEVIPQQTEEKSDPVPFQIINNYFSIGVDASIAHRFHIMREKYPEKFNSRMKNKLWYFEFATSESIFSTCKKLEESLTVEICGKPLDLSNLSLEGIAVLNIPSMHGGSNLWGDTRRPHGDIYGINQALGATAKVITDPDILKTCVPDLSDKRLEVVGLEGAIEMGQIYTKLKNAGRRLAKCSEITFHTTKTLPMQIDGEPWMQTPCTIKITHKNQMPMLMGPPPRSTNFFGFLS
DGKζ, sequence (Q13574 whole entry): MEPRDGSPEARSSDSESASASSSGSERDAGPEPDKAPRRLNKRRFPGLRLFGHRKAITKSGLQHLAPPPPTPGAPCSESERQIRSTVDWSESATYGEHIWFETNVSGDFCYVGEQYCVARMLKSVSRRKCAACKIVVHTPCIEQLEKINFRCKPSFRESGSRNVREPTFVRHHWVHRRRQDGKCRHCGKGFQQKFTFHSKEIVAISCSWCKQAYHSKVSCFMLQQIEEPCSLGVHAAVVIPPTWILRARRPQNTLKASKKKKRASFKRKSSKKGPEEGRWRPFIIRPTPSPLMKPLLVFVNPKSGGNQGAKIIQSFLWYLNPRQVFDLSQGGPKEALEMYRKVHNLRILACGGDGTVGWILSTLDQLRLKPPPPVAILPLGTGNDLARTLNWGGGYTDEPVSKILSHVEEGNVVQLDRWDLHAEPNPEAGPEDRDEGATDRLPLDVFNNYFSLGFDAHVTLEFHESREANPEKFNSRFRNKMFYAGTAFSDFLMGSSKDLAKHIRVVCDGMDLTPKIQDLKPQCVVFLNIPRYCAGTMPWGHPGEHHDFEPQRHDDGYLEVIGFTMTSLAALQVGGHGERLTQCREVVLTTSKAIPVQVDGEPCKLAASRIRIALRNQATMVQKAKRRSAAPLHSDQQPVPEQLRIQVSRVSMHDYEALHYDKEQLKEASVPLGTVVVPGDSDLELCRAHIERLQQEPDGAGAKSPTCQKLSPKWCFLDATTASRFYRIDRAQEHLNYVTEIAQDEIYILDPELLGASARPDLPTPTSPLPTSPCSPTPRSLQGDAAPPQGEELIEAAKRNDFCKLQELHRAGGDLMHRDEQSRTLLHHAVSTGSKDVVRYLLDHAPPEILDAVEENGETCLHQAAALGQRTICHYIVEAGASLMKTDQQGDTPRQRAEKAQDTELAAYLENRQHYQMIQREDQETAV

| Structure (SMILES) | IC50 (DGKζ) [µM] | IC50 (DGKα) [µM] |
| --- | --- | --- |
| [2H]c1nc2c(N3C[C@@H](CC)N(C(c4ccc(F)cc4)c4ccc(F)cc4)C[C@@H]3CC)nc3nncn3c2n1CCN(C)C [Example 36, 2-(4-((2S,5R)-4-(Bis(4-fluorophenyl)methyl)-2,5-diethylpiperazin-1-yl)-1H-[1,2,4]triazolo[3,4-b]purin-1-yl-2-d)-N,N-dimethylethan-1-amine] | ≤ 0.02 | ≤ 0.02 |
| C[C@@H]1CN(c2nc3nncn3c3c2nnn3C[C@@H]2CCCO2)[C@@H](C)CN1C(c1ccc(Br)cc1)c1ccc(Br)cc1 [Example 111, 4-((2S,5R)-4-(Bis(4-bromophenyl)methyl)-2,5-dimethylpiperazin-1-yl)-1-(((S)-tetrahydrofuran-2-yl)methyl)-1H-[1,2,3]triazolo[4,5-e][1,2,4]triazolo[4,3-a]pyrimidine] | ≤ 0.02 | ≤ 0.02 |
| Cc1nc2c(N3C[C@@H](C)N([C@H](c4cccc(F)c4)C(C)C)C[C@@H]3C)nc3nncn3c2n1C[C@@H]1CCCO1 [Example 94, 4-((2S,5R)-4-((S)-1-(3-Fluorophenyl)-2-methylpropyl)-2,5-dimethylpiperazin-1-yl)-2-methyl-1-(((S)-tetrahydrofuran-2-yl)methyl)-1H-[1,2,4]triazolo[3,4-b]purine] | ≤ 0.02 | ≤ 0.02 |
| Cc1nc2c(N3C[C@@H](C)N(C(c4ccc(F)cc4)c4ccc(F)cc4)C[C@@H]3C)nc3nncn3c2n1C[C@@H]1CCCO1 [Example 19, 4-((2S,5R)-4-(Bis(4-fluorophenyl)methyl)-2,5-dimethylpiperazin-1-yl)-2-methyl-1-(((S)-tetrahydrofuran-2-yl)methyl)-1H-[1,2,4]triazolo[3,4-b]purine] | ≤ 0.02 | ≤ 0.02 |
| Cc1nc2c(N3C[C@@H](C)N(C(c4cc(F)c(F)c(F)c4)C4CC(F)(F)C4)C[C@@H]3C)nc3nncn3c2n1C[C@@H]1CCCO1 (stereo partly drawn) [Example 52, 4-((2S,5R)-4-((3,3-Difluorocyclobutyl)(3,4,5-trifluorophenyl)methyl)-2,5-dimethylpiperazin-1-yl)-2-methyl-1-(((S)-tetrahydrofuran-2-yl)methyl)-1H-[1,2,4]triazolo[3,4-b]purine] | ≤ 0.02 | ≤ 0.02 |
| Cc1nc2c(N3C[C@@H](C)N([C@H](c4ccc(Br)cc4)C(C)C)C[C@@H]3C)nc3nncn3c2n1C[C@@H]1CCCO1 [Example 138, 4-((2S,5R)-4-((S)-1-(4-Bromophenyl)-2-methylpropyl)-2,5-dimethylpiperazin-1-yl)-2-methyl-1-(((S)-tetrahydrofuran-2-yl)methyl)-1H-[1,2,4]triazolo[3,4-b]purine] | ≤ 0.02 | ≤ 0.02 |
| Cc1nc2c(N3C[C@@H](C)N(C(c4cc(F)ccc4F)C4CC(F)(F)C4)C[C@@H]3C)nc3nncn3c2n1C[C@@H]1CCCO1 (stereo partly drawn) [Example 53, 4-((2S,5R)-4-((3,3-Difluorocyclobutyl)(2,5-difluorophenyl)methyl)-2,5-dimethylpiperazin-1-yl)-2-methyl-1-(((S)-tetrahydrofuran-2-yl)methyl)-1H-[1,2,4]triazolo[3,4-b]purine] | ≤ 0.02 | ≤ 0.02 |
| Cc1nc2c(N3C[C@@H](C)N(C(c4ccc(F)c(Cl)c4)C4CC(F)(F)C4)C[C@@H]3C)nc3nncn3c2n1C[C@@H]1CCCO1 (single isomer, unassigned) [Example 44] | ≤ 0.02 | ≤ 0.02 |
| C[C@@H]1CN(c2nc3nncn3c3c2ncn3CC2CC2)[C@@H](C)CN1[C@@H](c1ccc(F)cc1)c1ccc(OC(F)(F)F)cn1 [Example 24, 1-(Cyclopropylmethyl)-4-((2S,5R)-4-((S)-(4-fluorophenyl)(5-(trifluoromethoxy)pyridin-2-yl)methyl)-2,5-dimethylpiperazin-1-yl)-1H-[1,2,4]triazolo[3,4-b]purine] | ≤ 0.02 | ≤ 0.02 |
| Cc1nc2c(N3C[C@@H](CO)N(C(c4ccc(Cl)cc4)c4ccc(Cl)cc4)C[C@@H]3C)nc3nncn3c2n1C[C@@H]1CCCO1 [Example 137, ((2S,5S)-1-(Bis(4-chlorophenyl)methyl)-5-methyl-4-(2-methyl-1-(((S)-tetrahydrofuran-2-yl)methyl)-1H-[1,2,4]triazolo[3,4-b]purin-4-yl)piperazin-2-yl)methanol] | ≤ 0.02 | ≤ 0.02 |
| Cc1nc2c(N3C[C@@H](C)N([C@H](c4ccc(F)c(Cl)c4)C(C)C)C[C@@H]3C)nc3nncn3c2n1C[C@@H]1CCCO1 [Example 86, 4-((2S,5R)-4-((S)-1-(3-Chloro-4-fluorophenyl)-2-methylpropyl)-2,5-dimethylpiperazin-1-yl)-2-methyl-1-(((S)-tetrahydrofuran-2-yl)methyl)-1H-[1,2,4]triazolo[3,4-b]purine] | ≤ 0.02 | ≤ 0.02 |
| Cc1nc2c(N3C[C@@H](C)N([C@@H](c4ccc(Cl)cc4)C(C)C)C[C@@H]3C)nc3nncn3c2n1C[C@@H]1CCCO1 [Example 89, 4-((2S,5R)-4-((R)-1-(4-chlorophenyl)-2-methylpropyl)-2,5-dimethylpiperazin-1-yl)-2-methyl-1-(((S)-tetrahydrofuran-2-yl)methyl)-1H-[1,2,4]triazolo[3,4-b]purine] | ≤ 0.02 | ≤ 0.02 |
| Cc1nc2c(N3C[C@@H](C)N(C(c4ccc(C(F)(F)F)cc4)c4ccc(C(F)(F)F)cc4)C[C@@H]3C)nc3nncn3c2n1C[C@@H]1CCCO1 [Example 134, 4-((2S,5R)-4-(Bis(4-(trifluoromethyl)phenyl)methyl)-2,5-dimethylpiperazin-1-yl)-2-methyl-1-(((S)-tetrahydrofuran-2-yl)methyl)-1H-[1,2,4]triazolo[3,4-b]purine] | ≤ 0.02 | ≤ 0.02 |
| Cc1nc2c(N3C[C@@H](C)N([C@H](c4ccc(OC(F)F)cc4)C(C)C)C[C@@H]3C)nc3nncn3c2n1C[C@@H]1CCCO1 [Example 79, 4-((2S,5R)-4-((S)-1-(4-(Difluoromethoxy)phenyl)-2-methylpropyl)-2,5-dimethylpiperazin-1-yl)-2-methyl-1-(((S)-tetrahydrofuran-2-yl)methyl)-1H-[1,2,4]triazolo[3,4-b]purine] | ≤ 0.02 | ≤ 0.02 |
| C[C@@H]1CN(c2nc3nncn3c3c2ncn3CCN(C)C)[C@@H](C)CN1C(c1ccc(F)c(Cl)c1)[C@H]1C[C@H](C(F)(F)F)C1 (stereo partly drawn) [Example 114, 2-(4-((2S,5R)-4-((3-chloro-4-fluorophenyl)((trans)-3-(trifluoromethyl)cyclobutyl)methyl)-2,5-dimethylpiperazin-1-yl)-1H-[1,2,4]triazolo[3,4-b]purin-1-yl)-N,N-dimethylethan-1-amine] | ≤ 0.02 | ≤ 0.02 |
| CC[C@@H]1CN(c2nc3nncn3c3c2nc(C)n3C[C@@H]2CCCO2)[C@@H](C)CN1[C@@H](c1ccc(OC(F)(F)F)cc1)C(C)C [Example 131, 4-((2S,5R)-5-ethyl-2-methyl-4-((R)-2-methyl-1-(4-(trifluoromethoxy)phenyl)propyl)piperazin-1-yl)-2-methyl-1-(((S)-tetrahydrofuran-2-yl)methyl)-1H-[1,2,4]triazolo[3,4-b]purine] | ≤ 0.02 | ≤ 0.02 |
| C[C@@H]1CN(c2nc3nncn3c3c2ncn3CCN(C)C)[C@@H](C)CN1C(c1ccc(C(F)F)cc1)c1ccc(C(F)F)cc1 [Example 100, 2-(4-((2S,5R)-4-(Bis(4-(difluoromethyl)phenyl)methyl)-2,5-dimethylpiperazin-1-yl)-1H-[1,2,4]triazolo[3,4-b]purin-1-yl)-N,N-dimethylethan-1-amine] | ≤ 0.02 | ≤ 0.02 |
| CC(C)[C@H](c1ccc(F)cc1)N1C[C@H](C)N(c2nc3nncn3c3c2ncn3CC2CC2)C[C@H]1C [Example 23, 1-(cyclopropylmethyl)-4-((2S,5R)-4-((R)-1-(4-fluorophenyl)-2-methylpropyl)-2,5-dimethylpiperazin-1-yl)-1H-[1,2,4]triazolo[3,4-b]purine] | ≤ 0.02 | ≤ 0.02 |
| CC[C@@H]1CN(c2nc3nncn3c3c2nc(C)n3C[C@@H]2CCCO2)[C@@H](C)CN1[C@H](c1ccc(OC(F)F)cc1)C(C)C [Example 126, 4-((2S,5R)-4-((S)-1-(4-(Difluoromethoxy)phenyl)-2-methylpropyl)-5-ethyl-2-methylpiperazin-1-yl)-2-methyl-1-(((S)-tetrahydrofuran-2-yl)methyl)-1H-[1,2,4]triazolo[3,4-b]purine] | ≤ 0.02 | ≤ 0.02 |
| CC[C@H]1CN(C(c2ccc(F)cc2)c2ccc(F)cc2)[C@H](CC)CN1c1nc2nncn2c2c1ncn2CCN(C)C [Example 35, 2-(4-((2S,5R)-4-(Bis(4-fluorophenyl)methyl)-2,5-diethylpiperazin-1-yl)-1H-[1,2,4]triazolo[3,4-b]purin-1-yl)-N,N-dimethylethan-1-amine] | ≤ 0.02 | ≤ 0.02 |
| C[C@@H]1CN(c2nc3nncn3c3c2cnn3C)[C@@H](C)CN1C(c1ccc(F)cc1)c1ccc(F)cc1 [Example 6, 4-((2S,5R)-4-(Bis(4-fluorophenyl)methyl)-2,5-dimethylpiperazin-1-yl)-1-methyl-1H-pyrazolo[4,3-e][1,2,4]triazolo[4,3-a]pyrimidine] | > 2 | ≤ 0.02 |
| Cc1nc2c(N3C[C@@H](C)N([C@H](c4ccc(C(F)(F)F)cc4F)C(C)C)C[C@@H]3C)nc3nncn3c2n1C[C@@H]1CCCO1 [Example 71, 4-((2S,5R)-4-((S)-1-(2-Fluoro-4-(trifluoromethyl)phenyl)-2-methylpropyl)-2,5-dimethylpiperazin-1-yl)-2-methyl-1-(((S)-tetrahydrofuran-2-yl)methyl)-1H-[1,2,4]triazolo[3,4-b]purine] | ≤ 0.02 | ≤ 0.02 |
| CC[C@@H]1CN(c2nc3nncn3c3c2nc(C)n3C[C@@H]2CCCO2)[C@@H](C)CN1C(c1ccc(F)cc1)c1ccc(C#N)cc1 (stereo partly drawn) [Example 133, 4-(((2R,5S)-2-Ethyl-5-methyl-4-(2-methyl-1-(((S)-tetrahydrofuran-2-yl)methyl)-1H-[1,2,4]triazolo[3,4-b]purin-4-yl)piperazin-1-yl)(4-fluorophenyl)methyl)benzonitrile] | ≤ 0.02 | ≤ 0.02 |
